Test results taken from patent publication US20230145555A1 (priority 2020, published 2023).
Like-named read-outs stand apart in the source and are kept apart here.

Key:
[1] = test system: K18-hACE2 transgenic mouse; assay type: in vivo; settings: after 7 days
[2] = test system: SARS-CoV-2; assay: Proof of concept study: time to negative SARS-CoV-2 test in asymptomatic positive patients; assay type: in vivo, human; settings: resveratrol alone by nasal and throat spray and/or inhalation, 6.0 mg per day for 2 weeks; 40 patients
Source text: About 100 adult asymptomatic patients, which are positive for SARS-CoV-2, are included in the study after a confirmatory test. […] Subsequently, the patients have a daily SARS-CoV-2 tests until day 7 and then at End of Treatment day 14.

[3] = test system: NLRP3 inflammasome; settings: macrophages; cited from earlier work
[4] = cited from earlier work
[5] = RSV 30 mg in food (aqueous phospholipid formulation)
[6] = RSV 45 mg in food (aqueous phospholipid formulation)
[7] = RSV 60 mg in food (aqueous phospholipid formulation)

With `Oc1ccc(/C=C/c2cc(O)cc(O)c2)cc1` [RSV, resveratrol] the “Survival Rate [%]” value [1, 5] was 37.5%, the “Survival Rate n/8” value [1, 5] was 3 n/8 and the “Survival Rate [%]” value [1, 6] was 50%. The “Survival Rate n/8” value [1, 6] was 4 n/8, the “Survival Rate [%]” value [1, 7] was 62.5% and the “Survival Rate n/8” value [1, 7] was 5 n/8. For the same molecule, the “time to negative SARS-CoV-2 test compared to patients without treatment” value [2] was “significantly earlier”, the “NLRP3 inflammasome-derived IL-1β secretion and pyroptosis” value [3] was “inhibits” and the solubility in water [4] was “almost insoluble”.
